Experimental data reported in patent US20260174780A1, “BISMUTH-THIOL COMPOSITIONS AND METHODS FOR TREATING INFLAMMATORY DISEASES” (Microbion Corporation, priority 2022, published 2026).

Assays:
[1] = Particle size by Nanosizer/Zetasizer Nano-S (volumetric mean diameter); type: physicochemical; conditions: resuspended in 2% Pluronic F-68, sonicated; two measurements
Description: The dried particulate matter was characterized to assess the particle size properties. Briefly, particles were resuspended in 2% Pluronic® F-68 (BASF, Mt. Olive, NJ) and the suspension was sonicated for 10 minutes in a water bath sonicator at standard setting prior to analysis using a Nanosizer/Zetasizer Nano-S particle analyzer (model ZEN1600 (without zeta-potential measuring capacity), Malvern Instruments, Worcestershire, UK) according to the manufacturer's recommendations.

[2] = tested on: cytokines in bronchoalveolar lavage fluid (BALF); assay: Cytokines in BALF of rats after a single inhaled dose of BisEDT; type: in vivo, Sprague-Dawley rats; conditions: day 8 compared to day 2; single low (1 mg/kg) or high (7 mg/kg) inhaled dose
Description: Two concentrations (low: 1 mg/kg; high: 7 mg/kg) of BisEDT were evaluated by inhalation in rats.
Bronchoalveolar lavage fluid (BALF) samples from day 2 (D2) and day 8 (D8) post treatment were analyzed for the expression of cytokines.
Protocol: Sprague-Dawley rats were randomly assigned to a study group based on body weight. Adult, male Sprague-Dawley rats (n=6 per group) were exposed to the aerosolized test article (TA) with a single dose on Study Day 1. Groups 1, 2, and 3 were exposed by inhalation to 1 mg/kg (targeted presented dose) of BisEDT sample 1, BisEDT sample 2, or BisEDT sample 3, respectively. Groups 4, 5, and 6 were exposed by inhalation to 7 mg/kg (targeted presented dose) of BisEDT sample 1, BisEDT sample 2, or BisEDT sample 3, respectively. Animals were necropsied on Study Days 2, 4, and 8, and terminal blood collections were conducted at that time.
Blood Processing: All blood samples were placed into a tube containing K3EDTA, and mixed thoroughly. Following mixing, blood obtained at the time of euthanasia was divided in half. Half of the blood sample was stored frozen without further processing pending bioanalysis. The remaining half was placed on wet ice before being processed to plasma by centrifugation at 2500×g for ≥10 minutes at 2 to 8° C. Plasma was aliquoted into a cryovial(s), snap frozen in liquid nitrogen, and stored at −80° C.±10° C. until cytokine analysis was performed using ELISA kits following manufacturer's instructions.

BEAS-2B cells = assay: Cytokine ELISA in BEAS-2B cells; type: cell-based, human; conditions: 0.5, 1, 2 or 4 μg/mL, 24 hours, compared to untreated cells
Description: (§1) Protocol: BEAS-2B cells were grown in tissue culture flasks and a 24-well plate was seeded with 2×10^5 cells/well and incubated at 37° C. and 5% CO2 for 48 hours. Select wells were treated with either 4 μg/mL, 2 μg/mL, 1 μg/mL, or 0.5 μg/mL BisEDT or left untreated as a control and incubated at 37° C. and 5% CO2 for 24 hours. Cell culture supernatant was collected from each well and stored at −20° C. until further ELISA analysis. On the day of the ELISA assays to determine the expression of each cytokine, cell culture supernatant was thawed, and the assays performed following the manufacturer's instructions. Cells were collected for RNA isolation using Qiagen RNeasy kit using manufacturers' instructions. Briefly, genomic DNA was degraded with DNase (Roche) and samples were incubated at 37° C. for 1 hour followed by 3 μL DNase inactivation reagent (Invitrogen) incubated at 37° C. for 2 minutes. Samples were centrifuged at maximum speed for 5 minutes to remove the inactivation reagent. RNA concentration and quality was evaluated using a Nanodrop. RNA samples were utilized to generate cDNA using cDNA synthesis kit (Bio-Rad). qPCR for AIM2 and actin (housekeeping gene) was conducted using SYBR green kit (Bio-Rad) along with standards.

NLRP3 = assay: qPCR of NLRP3 in A549 cells; type: cell-based, human; conditions: 0.5-4 μg/mL, 24 hours, compared to untreated cells
Description: as §1, with “A549” for “BEAS-2B”, “further” for “further ELISA”, “analysis.” for “analysis. On the day of the ELISA assays to determine the expression of each cytokine, cell culture supernatant was thawed, and the assays performed following the manufacturer's instructions.”, “manufacturer's” for “manufacturers'”, “NLRP3” for “AIM2”, “standard.” for “standards.”

C1C[S][Bi]([S]CC[S][Bi]2[S]CC[S]2)[S]1 [BisEDT, 1,2-(Bis(1,3-dithia-2-bismolane)thio)ethane]
peak VMD [1]: about 1.3 microns
expression of IL-1β in BALF [2]: Consistent reduction
expression of IL-17A in BALF [2]: Consistent reduction
expression of TNF-α in BALF [2]: Consistent reduction
expression of IL-1β (BEAS-2B cells): Consistent reduction
expression of IL-10 (BEAS-2B cells): consistent increase
expression of TNF-α (BEAS-2B cells): Consistent reduction
NLRP3 expression (NLRP3/Actin copy number) (NLRP3): inhibits NLRP3 expression
